What was measured:
[1] = tested on: HCV NS3/4A PR (S139A):PRSIM_23; test: HTRF complex formation with alternative HCV PR inhibitors; assay type: binding, Hepatitis C virus subtype 1a; conditions: simeprevir substituted with alternative inhibitor
Protocol: (§1) scFv and Tn3 PRSIM binding molecules that were selective for the HCV NS3/4A PR (S139A) were identified in homogeneous time-resolved fluorescence (HTRF®) assays run in parallel to measure binding in the presence and absence of simeprevir. HCV NS3/4A PR (S139A), and serial dilutions of purified PRSIM binding molecules, were prepared in assay buffer (PBS containing 0.4 M potassium fluoride and 0.1% BSA). Streptavidin cryptate (Cisbio) was pre-mixed with either anti-FLAG XL665 (to detect the Tn3 molecules) or anti-c-myc XL665 (to detect the scFv molecules) in assay buffer. For each assay 2.5 μl of sample titration was added to 2.5 μl HCV NS3/4A PR (S139A) and 2.5 μl of pre-mixed detection reagents. Either 2.5 μl simeprevir or 2.5 μl of a DMSO blank were also added to each well. […] Assay plates were incubated overnight at 4° C., prior to reading the time resolved fluorescence at 620 nm and 665 nm emission wavelengths using a PerkinElmer Envision plate reader. Data was analysed by calculating % Delta F values for each sample. Delta F was determined according to equation 1.
(§2) There are several small molecule inhibitors that are known to bind the HCV NS3/4A protease and have been approved for human use. A panel of such small molecules were assessed for their ability to induce complex formation between HCV NS3/4A PR (S139A) and PRSIM_23 or PRSIM_57. […]

[2] = tested on: HCV NS3/4A PR (S139A):PRSIM_57; test: as above; assay type: binding, Hepatitis C virus subtype 1a; conditions: simeprevir substituted with alternative inhibitor
Protocol: as §1, §2

[3] = tested on: iPSC single-cell clones with B2M-targeted kill switch; test: Real-time cell analysis (RTCA) of kill switch activity in iPS cells; assay type: cell-based, human; conditions: 1 nM simeprevir
From the text: A stable induced pluripotency stem cell (iPSC) line (a single clone (B-3/1F1) derived from the fibroblast cells of a healthy human donor from Research Specimen Collection Program of Astrazeneca) stably expressing the simeprevir-inducible kill switch was generated using CRISPR/Cas9 technology, using AAV-encoded DNA as template for targeted integration into the β2 microglobulin (B2M) locus.
The donor construct (FIG. 33A) encoding the PRSIM-based kill switch (SEQ ID 223) was synthesized and purchased from GenScript, Inc. and was subcloned into an AAV shuttle plasmid backbone. The donor construct was packaged into adeno-associated viral (AAV) particles; briefly, the donor plasmid was co-transfected with two helper plasmids, pAd5Helper and pR2C6, encoding adenoviral components essential for AAV replication and AAV2 replication (rep)/AAV6 capsid (cap) proteins respectively. After 72 hours, the cells were collected and were disrupted by freeze-thawing. The cell lysate was digested with Benzonase (100 U/ml) for 1 hour at 37° C. and were centrifugated. The vector-containing supernatant was collected and applied to Iodixanol gradient followed by ultracentrifugation. After ultracentrifugation, the vector containing solution was collected and washed with 20 mL PBS in a centrifugal concentrator tube for 3 times. Finally, the solution was concentrated to 1 mL. […]

In the case of `COc1ccc2c(O[C@@H]3C[C@H]4C(=O)N[C@]5(C(=O)NS(=O)(=O)C6CC6)C[C@H]5/C=C\CCCCN(C)C(=O)[C@@H]4C3)cc(-c3nc(C(C)C)cs3)nc2c1C` [simeprevir], the “induction of complex formation” value [1] is reported as “induction of complex formation was specific for simeprevir”, the “induction of complex formation” value [2] is reported as “induction of complex formation was specific for simeprevir” and the cell proliferation index ([3]; clones encoding the kill switch) is reported as “dramatic reduction in cell proliferation index after 5 hours”. The cell proliferation index ([3]; parental iPSC cells) was “continued to proliferate”.

Source: patent publication US20220380801A1, “TRIPARTITE SYSTEMS FOR PROTEIN DIMERIZATION AND METHODS OF USE” (priority 2019, published 2022)
